Results from PMC5218480 (PLoS ONE, 2017).

System: MV-4-11 cells
Assay: Gene expression microarray analysis (Affymetrix PrimeView) and GSEA
Assay type: cell-based, human
Parameters: RFU PODN (11730768_x_at) / Fold change /veh PODN (11730768_x_at) / RFU LINC00158 (11744669_a_at) / Fold change /veh LINC00158 (11744669_a_at) / RFU DUSP10 (11751237_a_at) / Fold change /veh DUSP10 (11751237_a_at) / RFU ID3 (11757404_x_at) / Fold change /veh ID3 (11757404_x_at) / RFU PLEKHG5 (11737974_s_at) / Fold change /veh PLEKHG5 (11737974_s_at) / RFU LRRC4B (11730491_at) / Fold change /veh LRRC4B (11730491_at) / RFU GIMAP4 (11747438_a_at) / Fold change /veh GIMAP4 (11747438_a_at) / RFU KRT8 (11758183_x_at) / Fold change /veh KRT8 (11758183_x_at) / RFU CNN1 (11734310_a_at) / Fold change /veh CNN1 (11734310_a_at) / RFU VPS37D (11726825_at) / Fold change /veh VPS37D (11726825_at) / RFU C10orf10 (11716522_x_at) / Fold change /veh C10orf10 (11716522_x_at) / RFU KIR2DL2 /// KIR2DL4 /// KIR2DL5A /// KIR2DL5B /// KIR2DS1 /// KIR2DS2 /// KIR2DS3 /// KIR2DS4 /// KIR3DL3 /// KIR3DL3 /// KIR3DS1 (11738374_at) / Fold change /veh KIR2DL2 /// KIR2DL4 /// KIR2DL5A /// KIR2DL5B /// KIR2DS1 /// KIR2DS2 /// KIR2DS3 /// KIR2DS4 /// KIR3DL3 /// KIR3DL3 /// KIR3DS1 (11738374_at) / RFU C1QL1 (11718748_at) / Fold change /veh C1QL1 (11718748_at) / RFU TMPRSS4 (11747572_a_at) / Fold change /veh TMPRSS4 (11747572_a_at) / RFU HAMP (11756126_x_at) / Fold change /veh HAMP (11756126_x_at) / RFU RNFT2 (11725882_a_at) / Fold change /veh RNFT2 (11725882_a_at) / RFU NR4A2 (11747474_a_at) / Fold change /veh NR4A2 (11747474_a_at) / RFU ABCC12 (11746883_a_at) / Fold change /veh ABCC12 (11746883_a_at) / RFU TMEM136 (11760407_x_at) / Fold change /veh TMEM136 (11760407_x_at) / RFU CLDN22 /// WWC2 (11732394_at) / Fold change /veh CLDN22 /// WWC2 (11732394_at) / RFU HLA-DPB1 (11760878_x_at) / Fold change /veh HLA-DPB1 (11760878_x_at) / RFU SPINT1 (11716480_a_at) / Fold change /veh SPINT1 (11716480_a_at) / RFU GAP43 (11754022_s_at) / Fold change /veh GAP43 (11754022_s_at) / RFU A4GNT (11735810_at) / Fold change /veh A4GNT (11735810_at) / RFU PRB3 (11715151_x_at) / Fold change /veh PRB3 (11715151_x_at) / RFU TUBB4B (11761932_at) / Fold change /veh TUBB4B (11761932_at) / RFU CAPN14 (11732068_a_at) / Fold change /veh CAPN14 (11732068_a_at) / RFU TMCC2 (11721928_a_at) / Fold change /veh TMCC2 (11721928_a_at) / RFU IRGQ (11745062_a_at) / Fold change /veh IRGQ (11745062_a_at) / RFU FAM174B (11720279_a_at) / Fold change /veh FAM174B (11720279_a_at) / RFU TMPRSS4 (11748680_a_at) / Fold change /veh TMPRSS4 (11748680_a_at) / RFU FAM212B (11763350_a_at) / Fold change /veh FAM212B (11763350_a_at) / RFU PLEKHG5 (11743358_a_at) / Fold change /veh PLEKHG5 (11743358_a_at) / RFU ZSCAN30 (11745921_a_at) / Fold change /veh ZSCAN30 (11745921_a_at) / RFU CMKLR1 (11741424_a_at) / Fold change /veh CMKLR1 (11741424_a_at) / RFU LOC101060620 /// MAPK8IP1 (11723275_at) / Fold change /veh LOC101060620 /// MAPK8IP1 (11723275_at) / RFU SPTSSB (11747773_x_at) / Fold change /veh SPTSSB (11747773_x_at) / RFU PRSS12 (11739890_at) / Fold change /veh PRSS12 (11739890_at) / RFU BIN1 (11741810_x_at) / Fold change /veh BIN1 (11741810_x_at) / RFU WNT11 (11732464_a_at) / Fold change /veh WNT11 (11732464_a_at) / RFU C10orf10 (11716521_a_at) / Fold change /veh C10orf10 (11716521_a_at) / RFU C5orf56 (11738089_at) / Fold change /veh C5orf56 (11738089_at) / RFU CYB561 (11721691_x_at) / Fold change /veh CYB561 (11721691_x_at) / RFU ANKRD19P (11752326_a_at) / Fold change /veh ANKRD19P (11752326_a_at) / RFU OR2T12 /// OR2T33 /// OR2T8 (11738714_s_at) / Fold change /veh OR2T12 /// OR2T33 /// OR2T8 (11738714_s_at) / RFU VCAN (11748164_a_at) / Fold change /veh VCAN (11748164_a_at) / RFU JSRP1 (11732532_at) / Fold change /veh JSRP1 (11732532_at) / RFU KRTAP10-11 (11738290_x_at) / Fold change /veh KRTAP10-11 (11738290_x_at) / RFU MYO3A (11730013_a_at) / Fold change /veh MYO3A (11730013_a_at) / RFU EBF3 (11725865_a_at) / Fold change /veh EBF3 (11725865_a_at) / RFU CAMK2N1 (11719241_x_at) / Fold change /veh CAMK2N1 (11719241_x_at) / RFU C5orf56 (11738088_a_at) / Fold change /veh C5orf56 (11738088_a_at) / RFU OLFML3 (11715873_a_at) / Fold change /veh OLFML3 (11715873_a_at) / RFU LOC100653217 /// NTM (11731650_a_at) / Fold change /veh LOC100653217 /// NTM (11731650_a_at) / RFU MAPK11 (11762145_a_at) / Fold change /veh MAPK11 (11762145_a_at) / RFU FIZ1 (11724087_x_at) / Fold change /veh FIZ1 (11724087_x_at) / RFU OASL (11726364_x_at) / Fold change /veh OASL (11726364_x_at) / RFU SOX15 (11748057_x_at) / Fold change /veh SOX15 (11748057_x_at) / RFU CD79A (11719716_a_at) / Fold change /veh CD79A (11719716_a_at) / RFU HIST1H1D (11736915_at) / Fold change /veh HIST1H1D (11736915_at) / RFU CASKIN2 (11723855_a_at) / Fold change /veh CASKIN2 (11723855_a_at) / RFU LOC730098 (11760151_x_at) / Fold change /veh LOC730098 (11760151_x_at) / RFU OR4N2 (11742367_at) / Fold change /veh OR4N2 (11742367_at) / RFU PRRT2 (11749266_a_at) / Fold change /veh PRRT2 (11749266_a_at) / RFU SNX32 (11753110_a_at) / Fold change /veh SNX32 (11753110_a_at) / RFU CDHR5 (11726645_a_at) / Fold change /veh CDHR5 (11726645_a_at) / RFU RCAN1 (11760418_a_at) / Fold change /veh RCAN1 (11760418_a_at) / RFU FAM167A (11723789_a_at) / Fold change /veh FAM167A (11723789_a_at) / RFU FAM26E (11764081_at) / Fold change /veh FAM26E (11764081_at) / RFU ISYNA1 (11749810_s_at) / Fold change /veh ISYNA1 (11749810_s_at) / RFU ACY1 (11761880_at) / Fold change /veh ACY1 (11761880_at) / RFU 11764098_at / Fold change /veh 11764098_at / RFU SAMD14 (11745864_x_at) / Fold change /veh SAMD14 (11745864_x_at) / RFU NPB (11741838_a_at) / Fold change /veh NPB (11741838_a_at) / RFU TMPRSS6 (11731388_a_at) / Fold change /veh TMPRSS6 (11731388_a_at) / RFU KRTAP10-2 (11738614_at) / Fold change /veh KRTAP10-2 (11738614_at) / RFU ARHGAP8 /// PRR5-ARHGAP8 (11727945_x_at) / Fold change /veh ARHGAP8 /// PRR5-ARHGAP8 (11727945_x_at) / RFU KRTAP5-7 /// NADSYN1 (11734609_at) / Fold change /veh KRTAP5-7 /// NADSYN1 (11734609_at) / RFU RASL12 (11751679_a_at) / Fold change /veh RASL12 (11751679_a_at) / RFU CDKN2B (11736163_a_at) / Fold change /veh CDKN2B (11736163_a_at) / RFU PRF1 (11729649_at) / Fold change /veh PRF1 (11729649_at) / RFU, ZNF638 /// ZNF638-IT1 / Fold change vs veh, ZNF638 /// ZNF638-IT1 / RFU, PANK3 / Fold change vs veh, PANK3 / RFU, SH3YL1 / Fold change vs veh, SH3YL1 / RFU, ZEB2 / Fold change vs veh, ZEB2 / RFU, NRIP1 / Fold change vs veh, NRIP1 / RFU, PTTG1IP / Fold change vs veh, PTTG1IP / RFU, CAPN2 / Fold change vs veh, CAPN2 / RFU, MED14 / Fold change vs veh, MED14 / RFU, SNORA58 / Fold change vs veh, SNORA58 / RFU, C1orf63 / Fold change vs veh, C1orf63 / RFU, LRRFIP1 / Fold change vs veh, LRRFIP1 / RFU, NDUFAF7 / Fold change vs veh, NDUFAF7 / RFU, SLC12A2 / Fold change vs veh, SLC12A2 / RFU, IBTK / Fold change vs veh, IBTK / RFU, ESF1 / Fold change vs veh, ESF1 / Fold change vs veh, TMEM50B / RFU, TAOK1 / Fold change vs veh, TAOK1 / RFU, ACBD3 / Fold change vs veh, ACBD3 / RFU, TMA16 / Fold change vs veh, TMA16 / RFU, RWDD3 / Fold change vs veh, RWDD3 / RFU, BCAT1 / Fold change vs veh, BCAT1 / RFU, EDEM3 / Fold change vs veh, EDEM3 / RFU, TMEM33 / Fold change vs veh, TMEM33 / RFU, WDR75 / Fold change vs veh, WDR75 / RFU, AHCTF1 / Fold change vs veh, AHCTF1 / RFU, TFRC / Fold change vs veh, TFRC / RFU, ZDHHC17 / Fold change vs veh, ZDHHC17 / RFU, NOM1 / Fold change vs veh, NOM1 / RFU, ARL8B / Fold change vs veh, ARL8B / RFU, ZBTB11 / Fold change vs veh, ZBTB11 / RFU, TAMM41 / Fold change vs veh, TAMM41 / RFU, KIAA1704 /// LOC100996395 / Fold change vs veh, KIAA1704 /// LOC100996395 / RFU, ING1 / Fold change vs veh, ING1 / RFU, TRMT61B / Fold change vs veh, TRMT61B / RFU, FUBP3 / Fold change vs veh, FUBP3 / RFU, TP53 / Fold change vs veh, TP53 / RFU, TNKS2 / Fold change vs veh, TNKS2 / RFU, ZFP14 / Fold change vs veh, ZFP14 / RFU, ACTR2 / Fold change vs veh, ACTR2 / RFU, PPP3R1 / Fold change vs veh, PPP3R1 / RFU, PIK3R1 / Fold change vs veh, PIK3R1 / RFU, HNRNPA1 / Fold change vs veh, HNRNPA1 / RFU, RNF170 / Fold change vs veh, RNF170 / RFU, ZNF28 / Fold change vs veh, ZNF28 / RFU, RNGTT / Fold change vs veh, RNGTT / RFU, OGT / Fold change vs veh, OGT / RFU, BRD1 / Fold change vs veh, BRD1 / RFU, MARS / Fold change vs veh, MARS / RFU, ZNF655 / Fold change vs veh, ZNF655 / RFU, FAHD1 / Fold change vs veh, FAHD1 / RFU, BDP1 / Fold change vs veh, BDP1 / RFU, LRRCC1 / Fold change vs veh, LRRCC1 / RFU, ARID1A / Fold change vs veh, ARID1A / RFU, ZNF146 / Fold change vs veh, ZNF146 / RFU, ZNF330 / Fold change vs veh, ZNF330 / RFU, GPN3 / Fold change vs veh, GPN3 / RFU, C9orf123 / Fold change vs veh, C9orf123 / RFU, N4BP2L2 / Fold change vs veh, N4BP2L2 / RFU, ARFIP1 / Fold change vs veh, ARFIP1 / RFU, FAM179B / Fold change vs veh, FAM179B / RFU, BCL10 / Fold change vs veh, BCL10 / RFU, UHRF1BP1L / Fold change vs veh, UHRF1BP1L / RFU, BET1 / Fold change vs veh, BET1 / RFU, CNOT2 / Fold change vs veh, CNOT2 / RFU, ZNF268 / Fold change vs veh, ZNF268 / Fold change vs veh, ZNF507 / RFU, DGCR2 / Fold change vs veh, DGCR2 / RFU, WDSUB1 / Fold change vs veh, WDSUB1 / Fold change vs veh, HSP90B1 /// MIR3652 / RFU, ADSS / Fold change vs veh, ADSS / RFU, GK / Fold change vs veh, GK / RFU, ZNF148 / Fold change vs veh, ZNF148 / RFU, TAF9 / Fold change vs veh, TAF9 / RFU, SLC1A5 / Fold change vs veh, SLC1A5 / RFU, SLMO2 / Fold change vs veh, SLMO2 / RFU, ABCC4 / Fold change vs veh, ABCC4 / RFU, LOC101060439 /// RAP1B / Fold change vs veh, LOC101060439 /// RAP1B / RFU, RFX7 / Fold change vs veh, RFX7 / RFU, GTPBP10 / Fold change vs veh, GTPBP10 / RFU, CNEP1R1 / Fold change vs veh, CNEP1R1 / RFU, BIVM-ERCC5 /// ERCC5 / Fold change vs veh, BIVM-ERCC5 /// ERCC5 / RFU, ILF3 / Fold change vs veh, ILF3 / RFU 11762660_at / Fold change /veh 11762660_at / RFU VCAN (11757783_s_at) / Fold change /veh VCAN (11757783_s_at) / RFU DDX43 (11728927_at) / Fold change /veh DDX43 (11728927_at) / RFU KRT8 (11758188_x_at) / Fold change /veh KRT8 (11758188_x_at) / RFU NKD1 (11759106_at) / Fold change /veh NKD1 (11759106_at) / RFU SRD5A1 (11742802_a_at) / Fold change /veh SRD5A1 (11742802_a_at) / RFU TPSAB1 /// TPSB2 (11721975_s_at) / Fold change /veh TPSAB1 /// TPSB2 (11721975_s_at) / RFU GSTM3 (11746129_a_at) / Fold change /veh GSTM3 (11746129_a_at) / RFU IL23R (11737362_x_at) / Fold change /veh IL23R (11737362_x_at) / RFU TMEM51 (11727254_a_at) / Fold change /veh TMEM51 (11727254_a_at) / RFU PIWIL2 (11732686_x_at) / Fold change /veh PIWIL2 (11732686_x_at) / RFU ORM1 (11744905_x_at) / Fold change /veh ORM1 (11744905_x_at) / RFU CCDC152 (11743942_at) / Fold change /veh CCDC152 (11743942_at) / RFU ECM1 (11717891_a_at) / Fold change /veh ECM1 (11717891_a_at) / RFU IL23R (11748794_a_at) / Fold change /veh IL23R (11748794_a_at) / RFU TNFAIP8L3 (11732012_x_at) / Fold change /veh TNFAIP8L3 (11732012_x_at) / RFU MBOAT4 (11741988_at) / Fold change /veh MBOAT4 (11741988_at) / RFU 11764193_at / Fold change /veh 11764193_at / RFU TMEM53 (11763286_at) / Fold change /veh TMEM53 (11763286_at) / RFU MAGEB2 (11727129_at) / Fold change /veh MAGEB2 (11727129_at) / RFU TMEM200A (11744735_a_at) / Fold change /veh TMEM200A (11744735_a_at) / RFU CCDC152 (11751479_a_at) / Fold change /veh CCDC152 (11751479_a_at) / RFU FAM211A (11726209_a_at) / Fold change /veh FAM211A (11726209_a_at) / RFU RGS16 (11746705_a_at) / Fold change /veh RGS16 (11746705_a_at) / RFU VCAN (11755009_s_at) / Fold change /veh VCAN (11755009_s_at) / RFU RHOB (11743442_s_at) / Fold change /veh RHOB (11743442_s_at) / RFU RGS16 (11720943_a_at) / Fold change /veh RGS16 (11720943_a_at) / RFU RGS16 (11720944_at) / Fold change /veh RGS16 (11720944_at) / RFU, VPS4B / Fold change vs veh, VPS4B / RFU, CREB1 / Fold change vs veh, CREB1 / RFU, DNAJC13 / Fold change vs veh, DNAJC13 / RFU, GNAQ / Fold change vs veh, GNAQ / RFU, CDK5R1 / Fold change vs veh, CDK5R1 / RFU, ZRANB3 / Fold change vs veh, ZRANB3 / RFU, CUL4A / Fold change vs veh, CUL4A / RFU, CCNY / Fold change vs veh, CCNY / RFU, UFL1 / Fold change vs veh, UFL1 / RFU, COG3 / Fold change vs veh, COG3 / RFU, DIAPH2 / Fold change vs veh, DIAPH2 / RFU, SKA2 / Fold change vs veh, SKA2 / RFU, AFF3 / Fold change vs veh, AFF3 / RFU, LMF1 / Fold change vs veh, LMF1 / RFU, IPO11 / Fold change vs veh, IPO11 / RFU, DFFB / Fold change vs veh, DFFB / RFU, FOXP1 / Fold change vs veh, FOXP1 / RFU, CARD8 / Fold change vs veh, CARD8 / RFU, STRN3 / Fold change vs veh, STRN3 / RFU, ADK / Fold change vs veh, ADK / RFU, RASSF2 / Fold change vs veh, RASSF2 / RFU, WIPF1 / Fold change vs veh, WIPF1 / RFU, LARP1B / Fold change vs veh, LARP1B / RFU, RASA1 / Fold change vs veh, RASA1 / RFU, RB1 / Fold change vs veh, RB1 / RFU, PPFIA1 / Fold change vs veh, PPFIA1 / RFU, MAT2A / Fold change vs veh, MAT2A / RFU, CCT5 / Fold change vs veh, CCT5 / RFU, WDR92 / Fold change vs veh, WDR92 / RFU, CUX1 / Fold change vs veh, CUX1 / RFU, TTC7A / Fold change vs veh, TTC7A / RFU, TMEM135 / Fold change vs veh, TMEM135 / RFU, DEPTOR / Fold change vs veh, DEPTOR / RFU, CPM / Fold change vs veh, CPM / RFU, DNAJB6 / Fold change vs veh, DNAJB6 / RFU, CACNA2D3 / Fold change vs veh, CACNA2D3 / RFU, DTX4 / Fold change vs veh, DTX4 / RFU, TFCP2 / Fold change vs veh, TFCP2 / RFU, GMCL1 /// GMCL1P1 / Fold change vs veh, GMCL1 /// GMCL1P1 / RFU, AEBP2 / Fold change vs veh, AEBP2 / RFU, SNHG1 /// SNORD22 /// SNORD25 /// SNORD26 /// SNORD27 /// SNORD28 /// SNORD29 /// SNORD31 / Fold change vs veh, SNHG1 /// SNORD22 /// SNORD25 /// SNORD26 /// SNORD27 /// SNORD28 /// SNORD29 /// SNORD31 / Fold change (Aza/veh), C12orf56 (ProbeSet 11735607_a_at) / Fold change (ACY-1035/veh), C12orf56 (ProbeSet 11735607_a_at) / Fold change (Aza/veh), FGFR1OP (ProbeSet 11751329_s_at) / Fold change (ACY-1035/veh), FGFR1OP (ProbeSet 11751329_s_at) / Fold change (Aza/veh), VPS36 (ProbeSet 11739960_a_at) / Fold change (ACY-1035/veh), VPS36 (ProbeSet 11739960_a_at) / RFU SYPL1 (11715823_x_at) / Fold change /veh SYPL1 (11715823_x_at) / RFU IGFBP7 (11715501_s_at) / Fold change /veh IGFBP7 (11715501_s_at) / RFU REEP3 (11722064_at) / Fold change /veh REEP3 (11722064_at) / RFU IGLL1 (11728026_x_at) / Fold change /veh IGLL1 (11728026_x_at): dose or concentration left out as unconfirmed
Conditions: ProbeSet 11732433_s_at; LIST B

Nc1ncn([C@@H]2O[C@H](CO)[C@@H](O)[C@H]2O)c(=O)n1 [azacitidine]
Fold change vs veh, GK: 0.93
